From patent publication US20190135793A1, “HETEROCYCLIC INHIBITORS OF KDM5 FOR THE TREATMENT OF DISEASE” (Board of Regents, The University of Texas System, priority 2017, published 2019)
pIC50: −log10 of the molar value. Read-outs that look alike come from different tables or passages of the source.

Columns and labels:
[1] = biological target: T1, KDM5B (Homo sapiens, UniProt Q9UGL1); test: biochemical
T1 construct: Full length of KDM5B and KDM4C protein were purchased from Active Motif; purchased Active Motif 31832
How it was run: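 KDM5B (0.5 nM final) was preincubated with compound for 15 min at room temperature, then reacted with biotinylated peptide (3 nM final) for 25 min at room temperature.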

[2] = biological target: T2, KDM4C (Homo sapiens, UniProt Q9H3R0); test: KDM4C AlphaScreen assay; assay type: biochemical; settings: AlphaScreen; full length KDM4C 0.2 nM; biotinylated H3K9Me3 peptide 3 nM; 30 minutes at room temperature
T2 construct: Full length of KDM5B and KDM4C protein were purchased from Active Motif; purchased Active Motif 31858
T2 sequence (Q9H3R0 1-1056): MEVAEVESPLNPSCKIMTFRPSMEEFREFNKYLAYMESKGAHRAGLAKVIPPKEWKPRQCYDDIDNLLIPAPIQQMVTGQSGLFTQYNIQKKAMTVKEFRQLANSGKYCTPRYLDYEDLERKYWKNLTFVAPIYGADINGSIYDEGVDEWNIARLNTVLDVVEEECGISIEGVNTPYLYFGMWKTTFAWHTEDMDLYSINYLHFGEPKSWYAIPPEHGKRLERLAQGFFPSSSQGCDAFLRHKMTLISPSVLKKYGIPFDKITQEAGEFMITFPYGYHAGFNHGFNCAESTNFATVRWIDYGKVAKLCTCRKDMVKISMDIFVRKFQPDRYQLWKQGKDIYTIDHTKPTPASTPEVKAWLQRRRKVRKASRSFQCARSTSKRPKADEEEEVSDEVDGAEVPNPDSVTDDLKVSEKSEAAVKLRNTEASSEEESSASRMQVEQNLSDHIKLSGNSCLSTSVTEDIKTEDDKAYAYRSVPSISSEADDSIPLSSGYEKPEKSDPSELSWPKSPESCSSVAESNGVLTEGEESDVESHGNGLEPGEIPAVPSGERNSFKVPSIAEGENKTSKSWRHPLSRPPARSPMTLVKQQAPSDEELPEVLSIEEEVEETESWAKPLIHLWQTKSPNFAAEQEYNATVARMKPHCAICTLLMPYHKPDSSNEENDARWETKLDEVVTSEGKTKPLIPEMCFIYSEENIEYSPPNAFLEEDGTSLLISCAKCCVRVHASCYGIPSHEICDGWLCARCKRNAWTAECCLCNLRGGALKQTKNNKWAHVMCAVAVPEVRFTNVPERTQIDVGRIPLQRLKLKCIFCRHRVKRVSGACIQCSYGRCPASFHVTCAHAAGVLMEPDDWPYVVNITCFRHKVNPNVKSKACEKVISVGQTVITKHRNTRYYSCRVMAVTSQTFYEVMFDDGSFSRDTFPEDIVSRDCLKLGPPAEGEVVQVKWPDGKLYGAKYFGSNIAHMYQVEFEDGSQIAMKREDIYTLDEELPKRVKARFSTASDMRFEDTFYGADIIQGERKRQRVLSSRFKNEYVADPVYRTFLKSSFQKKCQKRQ
How it was run: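 Full-length KDM4C (0.2 nM final) was preincubated 15 min at RT with compound in HEPES pH 7.4 with Tween-20, BSA and TCEP. The reaction ran 30 min at RT after adding biotinylated peptide (3 nM final) in buffer with Fe(II), α-ketoglutarate and ascorbate. EDTA-containing AlphaScreen beads stopped it; IC50 was curve-fitted.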

[3] = AlphaScreen, full length KDM5B 0.5 nM, biotinylated H3K4Me3 peptide 3 nM, 25 minutes at room temperature, read-out: KDM5B (IC50)

T1 sequence (Q9UGL1 whole entry): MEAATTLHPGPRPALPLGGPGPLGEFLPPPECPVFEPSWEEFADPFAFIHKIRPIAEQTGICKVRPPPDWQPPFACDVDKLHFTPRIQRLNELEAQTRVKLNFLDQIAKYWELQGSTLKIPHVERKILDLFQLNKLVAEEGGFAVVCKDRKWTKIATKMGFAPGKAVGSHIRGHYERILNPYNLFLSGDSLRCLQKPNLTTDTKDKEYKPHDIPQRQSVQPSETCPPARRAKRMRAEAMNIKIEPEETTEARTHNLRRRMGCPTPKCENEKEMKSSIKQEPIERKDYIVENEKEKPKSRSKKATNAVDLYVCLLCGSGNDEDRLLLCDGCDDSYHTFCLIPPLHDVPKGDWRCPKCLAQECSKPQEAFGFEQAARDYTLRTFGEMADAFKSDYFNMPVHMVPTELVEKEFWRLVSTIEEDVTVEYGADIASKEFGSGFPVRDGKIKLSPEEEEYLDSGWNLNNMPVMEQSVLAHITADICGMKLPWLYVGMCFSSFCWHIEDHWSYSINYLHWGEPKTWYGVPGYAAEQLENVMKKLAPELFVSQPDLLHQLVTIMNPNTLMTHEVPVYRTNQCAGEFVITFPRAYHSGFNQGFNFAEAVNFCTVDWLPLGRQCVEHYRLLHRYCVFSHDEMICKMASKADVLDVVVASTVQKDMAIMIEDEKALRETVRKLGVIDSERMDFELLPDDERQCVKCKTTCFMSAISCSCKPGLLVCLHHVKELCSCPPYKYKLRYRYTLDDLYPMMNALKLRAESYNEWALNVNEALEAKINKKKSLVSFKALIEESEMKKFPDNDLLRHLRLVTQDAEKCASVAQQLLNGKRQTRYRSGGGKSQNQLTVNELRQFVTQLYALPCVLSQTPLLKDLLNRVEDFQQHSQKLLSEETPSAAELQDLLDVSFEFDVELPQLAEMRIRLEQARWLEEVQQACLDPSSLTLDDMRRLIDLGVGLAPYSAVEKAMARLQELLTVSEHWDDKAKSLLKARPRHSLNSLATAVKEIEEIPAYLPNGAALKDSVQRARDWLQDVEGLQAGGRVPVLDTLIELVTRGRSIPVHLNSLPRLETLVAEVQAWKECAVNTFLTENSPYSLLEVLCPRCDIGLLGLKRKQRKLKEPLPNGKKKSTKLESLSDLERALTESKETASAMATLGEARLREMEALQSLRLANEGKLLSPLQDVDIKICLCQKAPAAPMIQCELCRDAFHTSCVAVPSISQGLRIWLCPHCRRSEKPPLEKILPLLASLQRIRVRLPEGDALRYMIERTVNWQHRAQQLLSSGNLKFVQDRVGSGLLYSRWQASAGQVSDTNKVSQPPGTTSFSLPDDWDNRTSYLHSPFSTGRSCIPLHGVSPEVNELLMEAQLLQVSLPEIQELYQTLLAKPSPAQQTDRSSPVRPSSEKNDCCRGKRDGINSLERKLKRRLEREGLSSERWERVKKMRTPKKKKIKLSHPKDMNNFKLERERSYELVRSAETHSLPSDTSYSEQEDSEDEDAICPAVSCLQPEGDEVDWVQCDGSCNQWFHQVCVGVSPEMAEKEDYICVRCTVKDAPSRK

Row | Compound | pIC50 [1] | pIC50 [2] | pIC50 [1, 3]
1 | CC(C)c1c(O)nc(-n2ccnc2)nc1-c1ccc(C(=O)NCCN(C)C)nc1 [Example 8, N-(2-(dimethylamino)ethyl)-5-(6-hydroxy-2-(1H-imidazol-1-yl)-5-isopropylpyrimidin-4-yl)-picolinamide] | 8.10 | 6.12 | –
2 | CC(C)c1c(O)nc(-n2ccnc2)nc1-c1cnn(CC(=O)NCCCN(C)C)c1 [Example 90, N-[3-(Dimethylamino)-propyl]-2-{4-[6-hydroxy-2-(1H-imidazol-1-yl)-5-(propan-2-yl)pyrimidin-4-yl]-1H-pyrazol-1-yl}acetamide] | – | 6.39 | 8.40
3 | CC(C)c1c(O)nc(-n2ccnc2)nc1-c1cnn(C2CCOCC2)c1 [Example 59, 2-(1H-Imidazol-1-yl)-6-[1-(oxan-4-yl)-1H-pyrazol-4-yl]-5-(propan-2-yl)pyrimidin-4-ol] | 7.80 | 6.13 | –
4 | CC(C)c1c(O)nc(-n2ccnc2-c2ccccn2)nc1-c1cccc(CNS(C)(=O)=O)c1 [Example 89, N-({3-[6-Hydroxy-5-(propan-2-yl)-2-[2-(pyridin-2-yl)-1H-imidazol-1-yl]pyrimidin-4-yl]phenyl}methyl)methane-sulfonamide] | – | 4.70 | 6.58
5 | CC(C)CCn1cc(-c2nc(-n3ccnc3)nc(O)c2C(C)C)cn1 [Example 73, 2-(1H-Imidazol-1-yl)-6-[1-(3-methylbutyl)-1H-pyrazol-4-yl]-5-(propan-2-yl)pyrimidin-4-ol] | 7.60 | 5.87 | –
6 | CC(C)c1c(O)nc(-n2ccnc2)nc1OCC(=O)NS(C)(=O)=O [Example 17, 2-{[6-hydroxy-2-(1H-imidazol-1-yl)-5-(propan-2-yl)pyrimidin-4-yl]oxy}-N-methanesulfonylacetamide] | 6.83 | 5.02 | –
7 | CC(C)c1c(O)nc(-n2ccnc2)nc1-c1cnn(CC(=O)NC(CO)C(C)C)c1 (centres unmarked) [Example 115, 2-{4-[6-Hydroxy-2-(1H-imidazol-1-yl)-5-(propan-2-yl)pyrimidin-4-yl]-1H-pyrazol-1-yl}-N-(1-hydroxy-3-methylbutan-2-yl)acetamide] | 7.52 | 5.90 | –
8 | CC(C)c1c(O)nc(-n2ccnc2)nc1-c1cnn(CC(=O)NCCN2CCOCC2)c1 [Example 100, 2-{4-[6-Hydroxy-2-(1H-imidazol-1-yl)-5-(propan-2-yl)pyrimidin-4-yl]-1H-pyrazol-1-yl}-N-[2-(morpholin-4-yl)ethyl]-acetamide] | 7.92 | 5.90 | –
9 | CNC(=O)c1cccc(-c2nc(-n3ccnc3)nc(O)c2C(C)C)c1 [Example 57, 3-[6-Hydroxy-2-(1H-imidazol-1-yl)-5-(propan-2-yl)pyrimidin-4-yl]-N-methyl-benzamide] | 7.80 | 5.69 | –
10 | Cc1nccn1-c1nc(O)c(C(C)C)c(-c2cnn(C(C)C)c2)n1 [Example 4, 5-isopropyl-6-(1-isopropyl-1H-pyrazol-4-yl)-2-(2-methyl-1H-imidazol-1-yl)pyrimidin-4-ol] | 6.90 | 5.35 | –
11 | CCn1cc(-c2nc(-n3ccnc3)nc(O)c2C(C)C)cn1 [Example 66, 6-(1-Ethyl-1H-pyrazol-4-yl)-2-(1H-imidazol-1-yl)-5-(propan-2-yl)pyrimidin-4-ol] | 7.72 | 5.93 | –
12 | CC(C)c1c(O)nc(-n2ccnc2)nc1-c1cnn(CCN2CCOCC2)c1 [Example 68, 2-(1H-Imidazol-1-yl)-6-{1-[2-(morpholin-4-yl)ethyl]-1H-pyrazol-4-yl}-5-(propan-2-yl)pyrimidin-4-ol] | 7.68 | 5.61 | –
13 | CC(C)c1c(O)nc(-n2ccnc2)nc1-c1cnn(C2CC2)c1 [Example 47, 6-(1-Cyclopropyl-1H-pyrazol-4-yl)-2-(1H-imidazol-1-yl)-5-(propan-2-yl)pyrimidin-4-ol] | 7.96 | 6.11 | –

Results, then the compound that gave them:

Row | pIC50 [1] | pIC50 [2] | pIC50 [1, 3] | Compound
14 | 7.74 | 6.08 | – | CC(C)c1c(O)nc(-n2ccnc2)nc1-c1ccc(C(=O)O)nc1 [Example 121, 5-[6-Hydroxy-2-(1H-imidazol-1-yl)-5-(propan-2-yl)pyrimidin-4-yl]pyridine-2-carboxylic acid]
15 | 7.52 | 5.65 | – | CC(C)c1c(O)nc(-n2ccnc2)nc1-c1cnn(CC(=O)NCCN(C)CC(F)(F)F)c1 [Example 116, 2-{4-[6-Hydroxy-2-(1H-imidazol-1-yl)-5-(propan-2-yl)pyrimidin-4-yl]-1H-pyrazol-1-yl}-N-{2-[methyl-(2,2,2-trifluoroethyl)amino]-ethyl}acetamide]
16 | – | 5.90 | 8.15 | CC(C)c1c(O)nc(-n2ccnc2)nc1OCCN1CCN(C)CC1 [Example 122, 2-(1H-Imidazol-1-yl)-6-[2-(4-methylpiperazin-1-yl)ethoxy]-5-(propan-2-yl)pyrimidin-4-ol]
17 | – | 5.73 | 7.41 | CC(C)c1c(O)nc(-n2ccnc2)nc1-c1cnn(CC(=O)N2CCC(O)CC2)c1 [Example 119, 2-{4-[6-Hydroxy-2-(1H-imidazol-1-yl)-5-(propan-2-yl)pyrimidin-4-yl]-1H-pyrazol-1-yl}-1-(4-hydroxy-piperidin-1-yl)ethan-1-one]
18 | – | 5.53 | 6.85 | CC(C)c1c(O)nc(-c2cncs2)nc1OCc1ccncc1 [Example 144, 5-(Propan-2-yl)-6-(pyridin-4-ylmethoxy)-2-(1,3-thiazol-5-yl)pyrimidin-4-ol]
19 | 6.86 | 5.53 | – | CC(C)c1c(O)nc(-c2cncs2)nc1OCc1cncnc1 [Example 143, 5-(Propan-2-yl)-6-(pyrimidin-5-ylmethoxy)-2-(1,3-thiazol-5-yl)pyrimidin-4-ol]
